Laboratory results from PMC7464201, “Synthesis and Cytotoxic Activity of Novel C-23-Modified Asiatic Acid Derivatives” (Molecules, 2020).

Legend:
[1] = tested on: human colon (HCT-116) cancer cell line; test: MTT cytotoxicity assay, HCT116; format: cell-based; details: for IC50: Homo sapiens, HCT-116, 72 h, six concentrations, mean ± SD of three independent experiments
Procedure: (§1) To establish a SAR of the C-3 (R2) and C-23 (R1) of the AA derivatives, new compounds were subjected to MTT assays to evaluate their in-vitro antiproliferative activities against ovarian (SKOV-3) and colon (HCT-116) cancer cell lines, the IC50 values (the concentration that inhibits 50% of cell growth) of which are summarized in Table 1. Doxorubicin was used as the positive drug.
(§2) HCT116, SKOV-3, A549, A2780, HepG2, HL-60 and MCF-7 cells were incubated in DMEM with 10% heat-inactivated FBS in a humidified atmosphere of 5.0% CO2 at 37 °C. The in-vitro cytotoxicity of AA derivatives was determined using MTT assay. A 100-μL volume of culture medium at a concentration of 3 × 10^4 cell/mL was added to 96-well plate wells, which were maintained in a humidified atmosphere of 5.0% CO2 at 37 °C. After 24 h, 10 μL solution of AA derivatives and doxorubicin dissolved in DMSO and phophate buffered saline (PBS) and then diluted with DMEM under a concentration gradient, was added in the wells for final concentrations of 100, 10, 1, 0.1, 0.01, 0.001 μM of compounds in HCT116 and SKOV-3 cells and 125, 25, 5, 1, 0.2, 0.04 μM in A549, A2780, HepG2, HL-60 and MCF-7 cells. After 72 h incubation in a humidified atmosphere of 5.0% CO2 at 37 °C, 20 μl MTT solution (5 mg/mL) was added into each well and the cells were incubated. After 4 h, 100 μL HCl aqueous solution (0.01 M) with 10% SDS and 5% isobutanol was added into each well to dissolve the precipitated formazan and the absorbance was read at 570 nm on Thermo Scientific Varioskan Flash plate reader. All IC50 values were averaged from three independent experiments.

[2] = tested on: human ovarian (SKOV-3) cancer cell line; test: MTT cytotoxicity assay, SKOV-3; format: cell-based; details: for IC50: Homo sapiens, SK-OV-3, 72 h, six concentrations, mean ± SD of three independent experiments; for IC50 / cytotoxic activity against SKOV-3 cell line (in words): MTT
Procedure: as §1, §2

CO[C@@H]1C[C@@]2(C)[C@@H](CC[C@]3(C)[C@@H]2CC=C2[C@@H]4[C@@H](C)[C@H](C)CC[C@]4(C(=O)NCc4ccccc4)CC[C@]23C)[C@](C)(C=O)C1=O [Compound 5, α-Methoxy-3,23-Dioxo-Urs-12-Ene-28-Benzylamide]
IC50 ([1]; MTT): 26 ± 6.68 µM
IC50 [2]: > 100 µM

CO[C@@H]1C[C@]2(C)[C@H]3CC=C4[C@@H]5[C@@H](C)[C@H](C)CC[C@]5(C(=O)NCc5ccccc5)CC[C@@]4(C)[C@]3(C)CC[C@H]2[C@](C)(C=O)[C@H]1O [Compound 6, α-Methoxy-3β-Hydroxy-23-Oxo-Urs-12-Ene-28-Benzylamide]
IC50 ([1]; MTT): 8.46 ± 1.64 µM

CO[C@@H]1C[C@@]2(C)[C@@H](CC[C@]3(C)[C@@H]2CC=C2[C@@H]4[C@@H](C)[C@H](C)CC[C@]4(C(=O)NCc4ccccc4)CC[C@]23C)[C@](C)(C(=O)O)[C@H]1O [Compound 7, α-Methoxy-3β-Hydroxy-Urs-12-Ene-28-Benzylamide-23-Oic Acid]
IC50 ([1]; MTT): 16.7 ± 1.68 µM
IC50 [2]: 31.9 ± 2.59 µM

COC(=O)[C@@]1(C)[C@@H]2CC[C@]3(C)[C@H](CC=C4[C@@H]5[C@@H](C)[C@H](C)CC[C@]5(C(=O)NCc5ccccc5)CC[C@]43C)[C@@]2(C)C[C@@H](OC)[C@@H]1O [Compound 9, α-Methoxy-3β-Hydroxy-Urs-12-Ene-28-Benzylamide-23-Methyl Ester]
IC50 ([1]; MTT): 3.07 ± 1.48 µM
fold more active than AA against HCT116 cell line ([1]; relative to AA): 8 fold
IC50 [2]: 6.81 ± 3.87 µM
fold more active than AA against SKOV-3 cell line ([2]; relative to AA): 3 fold

COC(=O)[C@]1(C)C(=O)[C@H](OC)C[C@]2(C)[C@H]3CC=C4[C@@H]5[C@@H](C)[C@H](C)CC[C@]5(C(=O)NCc5ccccc5)CC[C@@]4(C)[C@]3(C)CC[C@@H]12 [Compound 11, α-Methoxy-3-Oxo-Urs-12-Ene-28-Benzyl Amide-23-Methyl Ester]
IC50 ([1]; MTT): > 100 µM
cytotoxic activity against HCT116 cell line (in words) ([1]; MTT): lost activity
IC50 [2]: > 100 µM
cytotoxic activity against SKOV-3 cell line (in words) [2]: lost activity

CO[C@@H]1C[C@]2(C)[C@H]3CC=C4[C@@H]5[C@@H](C)[C@H](C)CC[C@]5(C(=O)NCc5ccccc5)CC[C@@]4(C)[C@]3(C)CC[C@H]2[C@](C)(C=O)[C@H]1OC(C)=O [Compound 12, α-Methoxy-3β-Acetoxy-23-Oxo-Urs-12-Ene-28-Benzyl Amide]
IC50 ([1]; MTT): 6.69 ± 1.15 µM
IC50 [2]: > 100 µM

CO[C@@H]1C[C@@]2(C)[C@@H](CC[C@]3(C)[C@@H]2CC=C2[C@@H]4[C@@H](C)[C@H](C)CC[C@]4(C(=O)NCc4ccccc4)CC[C@]23C)[C@](C)(C(N)=O)[C@H]1O [Compound 13a, α-Methoxy-3β-Hydroxy-Urs-12-Ene-28-Benzyl Amide-23-Amide]
IC50 ([1]; MTT): 7.45 ± 1.62 µM

CNC(=O)[C@@]1(C)[C@@H]2CC[C@]3(C)[C@H](CC=C4[C@@H]5[C@@H](C)[C@H](C)CC[C@]5(C(=O)NCc5ccccc5)CC[C@]43C)[C@@]2(C)C[C@@H](OC)[C@@H]1O [Compound 13b, α-Methoxy-3β-Hydroxy-Urs-12-Ene-28-Benzyl Amide-23-Methylamide]
IC50 ([1]; MTT): 7.45 ± 3.53 µM

CCNC(=O)[C@@]1(C)[C@@H]2CC[C@]3(C)[C@H](CC=C4[C@@H]5[C@@H](C)[C@H](C)CC[C@]5(C(=O)NCc5ccccc5)CC[C@]43C)[C@@]2(C)C[C@@H](OC)[C@@H]1O [Compound 13c, α-Methoxy-3β-Hydroxy-Urs-12-Ene-28-Benzyl Amide-23-Ethylamide]
IC50 ([1]; MTT): 11 ± 4.28 µM

CO[C@@H]1C[C@@]2(C)[C@@H](CC[C@]3(C)[C@@H]2CC=C2[C@@H]4[C@@H](C)[C@H](C)CC[C@]4(C(=O)NCc4ccccc4)CC[C@]23C)[C@](C)(C(=O)NC(C)C)[C@H]1O [Compound 13d, α-Methoxy-3β-Hydroxy-Urs-12-Ene-28-Benzyl Amide-23-Isopropylamide]
IC50 ([1]; MTT): 8.57 ± 3.04 µM

C#CCNC(=O)[C@@]1(C)[C@@H]2CC[C@]3(C)[C@H](CC=C4[C@@H]5[C@@H](C)[C@H](C)CC[C@]5(C(=O)NCc5ccccc5)CC[C@]43C)[C@@]2(C)C[C@@H](OC)[C@@H]1O [Compound 13e, α-Methoxy-3β-Hydroxy-Urs-12-Ene-28-Benzyl Amide-23-Propargylamide]
IC50 ([1]; MTT): 8.03 ± 2.79 µM
IC50 [2]: 6.72 ± 4.32 µM

COC(=O)C(C)NC(=O)C1(C)C(O)C(OC)CC2(C)C1CCC1(C)C2CC=C2C3C(C)C(C)CCC3(C(=O)NCc3ccccc3)CCC21C [Compound 13f, N-(2α-Methoxy-3β-Hydroxy-Urs-12-Ene-28-Benzylamide-23-Oyl)-L-Alanine Methyl Ester]
IC50 ([1]; MTT): 4.35 ± 1.05 µM
IC50 [2]: 3.09 ± 1.54 µM

COC(=O)C(NC(=O)C1(C)C(O)C(OC)CC2(C)C1CCC1(C)C2CC=C2C3C(C)C(C)CCC3(C(=O)NCc3ccccc3)CCC21C)C(C)C [Compound 13g, N-(2α-Methoxy-3β-Hydroxy-Urs-12-Ene-28-Benzylamide-23-Oyl)-L-Valine Methyl Ester]
IC50 ([1]; MTT): 9.69 ± 1.64 µM

COC(=O)C(Cc1ccccc1)NC(=O)C1(C)C(O)C(OC)CC2(C)C1CCC1(C)C2CC=C2C3C(C)C(C)CCC3(C(=O)NCc3ccccc3)CCC21C [Compound 13h, N-(2α-Methoxy-3β-Hydroxy-Urs-12-Ene-28-Benzylamide-23-oyl)-L-Phenylalanine Methyl Ester]
IC50 ([1]; MTT): > 50 µM
IC50 [2]: > 100 µM
cytotoxic activity against SKOV-3 cell line (in words) [2]: not active

CCOC(=O)CCCNC(=O)[C@@]1(C)[C@@H]2CC[C@]3(C)[C@H](CC=C4[C@@H]5[C@@H](C)[C@H](C)CC[C@]5(C(=O)NCc5ccccc5)CC[C@]43C)[C@@]2(C)C[C@@H](OC)[C@@H]1O [Compound 13i, N-(2α-Methoxy-3β-Hydroxy-Urs-12-Ene-28-Benzylamide-23-Oyl)-4-Aminobutyric Ethyl Ester]
IC50 ([1]; MTT): 15.2 ± 1.99 µM

CO[C@@H]1C[C@@]2(C)[C@@H](CC[C@]3(C)[C@@H]2CC=C2[C@@H]4[C@@H](C)[C@H](C)CC[C@]4(C(=O)NCc4ccccc4)CC[C@]23C)[C@](C)(C(=O)N(C)C)[C@H]1O [Compound 13j, α-Methoxy-3β-Hydroxy-Urs-12-Ene-28-Benzyl Amide-23-Dimethylamide]
IC50 ([1]; MTT): 9.6 ± 4.58 µM

CO[C@@H]1C[C@@]2(C)[C@@H](CC[C@]3(C)[C@@H]2CC=C2[C@@H]4[C@@H](C)[C@H](C)CC[C@]4(C(=O)NCc4ccccc4)CC[C@]23C)[C@](C)(C(N)=O)[C@H]1OC(C)=O [Compound 14a, α-Methoxy-3β-Acetoxy-Urs-12-Ene-28-Benzyl Amide-23-Amide]
IC50 ([1]; MTT): 6.52 ± 3.03 µM
IC50 [2]: 7.12 ± 2.61 µM

CNC(=O)[C@@]1(C)[C@@H]2CC[C@]3(C)[C@H](CC=C4[C@@H]5[C@@H](C)[C@H](C)CC[C@]5(C(=O)NCc5ccccc5)CC[C@]43C)[C@@]2(C)C[C@@H](OC)[C@@H]1OC(C)=O [Compound 14b, α-Methoxy-3β-Acetoxy-Urs-12-Ene-28-Benzyl Amide-23-Methylamide]
IC50 ([1]; MTT): 34.2 ± 7.87 µM

CCNC(=O)[C@@]1(C)[C@@H]2CC[C@]3(C)[C@H](CC=C4[C@@H]5[C@@H](C)[C@H](C)CC[C@]5(C(=O)NCc5ccccc5)CC[C@]43C)[C@@]2(C)C[C@@H](OC)[C@@H]1OC(C)=O [Compound 14c, α-Methoxy-3β-Acetoxy-Urs-12-Ene-28-Benzyl Amide-23-Ethylamide]
IC50 ([1]; MTT): > 100 µM
IC50 [2]: > 100 µM

CO[C@@H]1C[C@@]2(C)[C@@H](CC[C@]3(C)[C@@H]2CC=C2[C@@H]4[C@@H](C)[C@H](C)CC[C@]4(C(=O)NCc4ccccc4)CC[C@]23C)[C@](C)(C(=O)NC(C)C)[C@H]1OC(C)=O [Compound 14d, α-Methoxy-3β-Acetoxy-Urs-12-Ene-28-Benzyl Amide-23-Isopropylamide]
IC50 ([1]; MTT): > 100 µM
IC50 [2]: > 100 µM

C#CCNC(=O)[C@@]1(C)[C@@H]2CC[C@]3(C)[C@H](CC=C4[C@@H]5[C@@H](C)[C@H](C)CC[C@]5(C(=O)NCc5ccccc5)CC[C@]43C)[C@@]2(C)C[C@@H](OC)[C@@H]1OC(C)=O [Compound 14e, α-Methoxy-3β-Acetoxy-Urs-12-Ene-28-Benzyl Amide-23-Propargylamide]
IC50 ([1]; MTT): > 100 µM
IC50 [2]: > 100 µM

COC(=O)C(C)NC(=O)C1(C)C(OC(C)=O)C(OC)CC2(C)C1CCC1(C)C2CC=C2C3C(C)C(C)CCC3(C(=O)NCc3ccccc3)CCC21C [Compound 14f, N-(2α-Methoxy-3β-Acetoxy-Urs-12-Ene-28-Benzylamide-23-oyl)-L-Alanine Methyl Ester]
IC50 ([1]; MTT): > 50 µM
IC50 [2]: > 100 µM

COC(=O)C(NC(=O)C1(C)C(OC(C)=O)C(OC)CC2(C)C1CCC1(C)C2CC=C2C3C(C)C(C)CCC3(C(=O)NCc3ccccc3)CCC21C)C(C)C [Compound 14g, N-(2α-Methoxy-3β-Acetoxy-Urs-12-Ene-28-Benzylamide-23-Oyl)-L-Valine Methyl Ester]
IC50 ([1]; MTT): > 100 µM
IC50 [2]: > 100 µM

COC(=O)C(Cc1ccccc1)NC(=O)C1(C)C(OC(C)=O)C(OC)CC2(C)C1CCC1(C)C2CC=C2C3C(C)C(C)CCC3(C(=O)NCc3ccccc3)CCC21C [Compound 14h, N-(2α-Methoxy-3β-Acetoxy-Urs-12-Ene-28-Benzylamide-23-Oyl)-L-Phenylalanine Methyl Ester]
IC50 ([1]; MTT): > 100 µM
IC50 [2]: > 100 µM
